According to patent US6936602B1, “Benzazepine derivatives, process for the preparation of the same and uses thereof” (Takeda Chemical Industries, Ltd., priority 1999, dated 2005):

SMILES	melting point [°C]
CC(C)OCCOc1ccc(-c2ccc3c(c2)C=C(C(=O)N(c2ccc(CN(C)C4CCOCC4)cc2)S(C)(=O)=O)CCN3)cc1 [Compound 15, 1-methylsulfonyl N-[4-[[N-methyl-N-(tetrahydro-2H-pyran-4-yl)amino]methyl]phenyl]-7-[4-(2-propoxy)ethoxyphenyl]-2,3-dihydro-1H-1-benzazepine-4-carboxamide]	161 to 162
CCCCOCCOc1ccc(-c2ccc3c(c2)C=C(C(=O)Nc2ccc(CN(C)C4CCOCC4)cc2)CCN3C)cc1 [Compound 18, 7-[4-(2-butoxyethoxy)phenyl]-1-methyl-N-[4-[[N-methyl-N-(tetrahydro-2H-pyran-4-yl)amino]methyl]phenyl]-2,3-dihydro-1H-1-benzazepine-4-carboxamide]	107 to 110
CN1CCC(C(=O)Nc2ccc(CN(C)C3CCOCC3)cc2)=Cc2cc(-c3ccc4c(c3)OCCO4)ccc21 [Compound 24, 7-(2,3-dihydro-1,4-benzodioxin-6-yl)-1-methyl-N-[4-[[N-methyl-N-(tetrahydro-2H-pyran-4-yl)amino]methyl]phenyl]-2,3-dihydro-1H-1-benzazepine-4-carboxamide]	164 to 165
CCCCOCCOc1ccc(-c2ccc3c(c2)C=C(C(=O)Nc2ccc(CN(C)C4CCOCC4)cc2)CCN3)cc1 [Compound 28, 7-[4-(2-butoxyethoxy)phenyl]-N-[4-[[N-methyl-N-(tetrahydro-2H-pyran-4-yl)amino]methyl]phenyl]-2,3-dihydro-1H-1-benzazepine-4-carboxamide]	119 to 123
CCCCOCCOc1ccc(-c2ccc3c(c2)C=C(C(=O)Nc2ccc(CN(C)C4CCOCC4)cc2)CCN3C2CC2)cc1 [Compound 31, 7-[4-(2-butoxyethoxy)phenyl]-1-cyclopropyl-N-[4-[[N-methyl-N-(tetrahydro-2H-pyran-4-yl)amino]methyl]phenyl]-2,3-dihydro-1H-1-benzazepine-4-carboxamide]	117 to 120
CCCCOCCOc1ccc(-c2ccc3c(c2)C=C(C(=O)Nc2ccc(CN(C)C4CCOCC4)cc2)CCN3CC2CCCCC2)cc1 [Compound 34, 7-[4-(2-butoxyethoxy)phenyl]-1-cyclohexylmethyl-N-[4-[[N-methyl-N-(tetrahydro-2H-pyran-4-yl)amino]methyl]phenyl]-2,3-dihydro-1H-1-benzazepine-4-carboxamide]	115 to 117
CCCCOCCOc1ccc(-c2ccc3c(c2)C=C(C(=O)Nc2ccc(CN(C)C4CCOCC4)cc2)CCN3c2cccc(OC)c2)cc1 [Compound 40, 7-[4-(2-butoxyethoxy)phenyl]-1-(3-methoxyphenyl)-N-(4-[[N-methyl-N-(tetrahydro-2H-pyran-4-yl)amino]methyl]phenyl]-2,3-dihydro-1H-1-benzazepine-4-carboxamide]	94 to 97
CCCCOCCOc1ccc(-c2ccc3c(c2)C=C(C(=O)Nc2ccc(CN(C)C4CCOCC4)cc2)CCN3c2cnc(C)o2)cc1 [Compound 44, 7-[4-(2-butoxyethoxy)phenyl]-1-(2-methyloxazol-5-yl)-N-[4-[[N-methyl-N-(tetrahydro-2H-pyran-4-yl)amino]methyl]phenyl]-2,3-dihydro-1H-1-benzazepine-4-carboxamide]	125 to 128
CCCCOCCOc1ccc(-c2ccc3c(c2)C=C(C(=O)Nc2ccc(CN(C)C4CCOCC4)cc2)CCN3c2ccc(S(=O)(=O)N(C)C)cc2)cc1 [Compound 47, 7-[4-(2-butoxyethoxy)phenyl]-1-(N,N-dimethyl-4-sulfamoylphenyl)-N-[4-[[N-methyl-N-(tetrahydro-2H-pyran-4-yl)amino]methyl]phenyl]-2,3-dihydro-1H-1-benzazepine-4-carboxamide]	94 to 98
CCCOCCOc1ccc(-c2ccc3c(c2)C=C(C(=O)Nc2ccc(CN(C)C4CCOCC4)cc2)CCN3Cc2ccccc2OC)cc1 [Compound 51, 1-(2-methoxybenzyl)-N-[4-[[N-methyl-N-(tetrahydropyran-4-yl)amino]methyl]phenyl]-7-(4-propoxyethoxyphenyl)-2,3-dihydro-1-benzazepine-4-carboxamide]	118 to 119
CCCCOCCOc1ccc(-c2ccc3c(c2)C=C(C(=O)Nc2ccc(CN(C)C4CCOCC4)cc2)CCN3Cc2ccccc2OC)cc1 [Compound 52, 7-(4-butoxyethoxyphenyl)-1-(2-methoxybenzyl)-N-[4-[[N-methyl-N-(tetrahydropyran-4-yl)amino]methyl]phenyl]-2,3-dihydro-1-benzazepine-4-carboxamide]	111.5 to 112.5
CCCOCCOc1ccc(-c2ccc3c(c2)C=C(C(=O)Nc2ccc(CN(C)C4CCOCC4)cc2)CCN3Cc2cccc(OC)c2)cc1 [Compound 53, 1-(3-methoxybenzyl)-N-[4-[[N-methyl-N-(tetrahydropyran-4-yl)amino]methyl]phenyl]-7-(4-propoxyethoxyphenyl)-2,3-dihydro-1-benzazepine-4-carboxamide]	113 to 114
CCCCOCCOc1ccc(-c2ccc3c(c2)C=C(C(=O)Nc2ccc(CN(C)C4CCOCC4)cc2)CCN3Cc2cccc(OC)c2)cc1 [Compound 54, 7-(4-butoxyethoxyphenyl)-1-(3-methoxybenzyl)-N-[4-[[N-methyl-N-(tetrahydropyran-4-yl)amino]methyl]phenyl]-2,3-dihydro-1-benzazepine-4-carboxamide]	107.5 to 108.5
CCCOCCOc1ccc(-c2ccc3c(c2)C=C(C(=O)Nc2ccc(CN(C)C4CCOCC4)cc2)CCN3Cc2ccc(OC)cc2)cc1 [Compound 55, 1-(4-methoxybenzyl)-N-[4-[[N-methyl-N-(tetrahydropyran-4-yl)amino]methyl]phenyl]-7-(4-propoxyethoxyphenyl)-2,3-dihydro-1-benzazepine-4-carboxamide]	160 to 161
CCCCOCCOc1ccc(-c2ccc3c(c2)C=C(C(=O)Nc2ccc(CN(C)C4CCOCC4)cc2)CCN3Cc2ccc(OC)cc2)cc1 [Compound 56, 7-(4-butoxyethoxyphenyl)-1-(4-methoxybenzyl)-N-[4-[[N-methyl-N-(tetrahydropyran-4-yl)amino]methyl]phenyl]-2,3-dihydro-1-benzazepine-4-carboxamide]	151 to 152

The next lines start with the values.

melting point [°C]	SMILES
223 to 224	CCCOCCOc1ccc(-c2ccc3c(c2)C=C(C(=O)Nc2ccc(CN(C)C4CCOCC4)cc2)CCN3c2ccccc2)cc1.Cl
157 to 158	CCOCCN(C)c1ccc(-c2ccc3c(c2)C=C(C(=O)Nc2ccc(CN(C)C4CCOCC4)cc2)CCN3C=O)cc1 [Compound 4, 7-[4-[N-(2-ethoxyethyl)-N-methylamino]phenyl]-1-formyl-N-[4-[[N-methyl-N-(tetrahydro-2H-pyran-4-yl)amino]methyl]phenyl]-2,3-dihydro-1H-1-benzazepine-4-carboxamide]
162 to 164	CCOCCN(CC)c1ccc(-c2ccc3c(c2)C=C(C(=O)Nc2ccc(CN(C)C4CCOCC4)cc2)CCN3C=O)cc1 [Compound 5, 7-[4-[N-(2-ethoxyethyl)-N-ethylamino]phenyl]-1-formyl-N-[4-[[N-methyl-N-(tetrahydro-2H-pyran-4-yl)amino]methyl]phenyl]-2,3-dihydro-1H-1-benzazepine-4-carboxamide]
146 to 149	CCCOCCN(CC)c1ccc(-c2ccc3c(c2)C=C(C(=O)Nc2ccc(CN(C)C4CCOCC4)cc2)CCN3C=O)cc1 [Compound 6, 7-[4-[N-ethyl-N-(2-propoxyethyl)amino]phenyl]-1-formyl-N-[4-[[N-methyl-N-(tetrahydro-2H-pyran-4-yl)amino]methyl]phenyl]-2,3-dihydro-1H-1-benzazepine-4-carboxamide]
157 to 160	CCOCCCOc1ccc(-c2ccc3c(c2)C=C(C(=O)Nc2ccc(CN(C)C4CCOCC4)cc2)CCN3S(C)(=O)=O)cc1 [Compound 8, 7-[4-(3-ethoxypropoxy)phenyl)-1-methanesulfonyl-N-[4-[[N-methyl-N-(tetrahydro-2H-pyran-4-yl)amino]methyl]phenyl]-2,3-dihydro-1H-1-benzazepine-4-carboxamide]
122 to 125	CCOCCOc1ccc(-c2ccc3c(c2)C=C(C(=O)Nc2ccc(CN(C)C4CCOCC4)cc2)CCN3C)cc1 [Compound 9, 7-[4-(2-ethoxyethoxy)phenyl]-1-methyl-N-[4-[[N-methyl-N-(tetrahydro-2H-pyran-4-yl)amino]methyl]phenyl]-2,3-dihydro-1H-1-benzazepine-4-carboxamide]
136 to 138	CCCOCCOc1ccc(-c2ccc3c(c2)C=C(C(=O)Nc2ccc(CN(C)C4CCOCC4)cc2)CCN3C)cc1 [Compound 12, 1-methyl-N-[4-[[N-methyl-N-(tetrahydro-2H-pyran-4-yl)amino]methyl]phenyl]-7-[4-(2-propoxyethoxy)phenyl]-2,3-dihydro-1H-benzazepine-4-carboxamide]
98 to 100	CCOCCCOc1ccc(-c2ccc3c(c2)C=C(C(=O)Nc2ccc(CN(C)C4CCOCC4)cc2)CCN3C)cc1 [Compound 13, 7-[4-(3-ethoxypropoxy)phenyl]-1-methyl-N-[4-[[N-methyl-N-(tetrahydro-2H-pyran-4-yl)amino]methyl]phenyl]-2,3-dihydro-1H-1-benzazepine-4-carboxamide]
198 to 200	CCOCCOc1ccc(-c2ccc3c(c2)C=C(C(=O)Nc2ccc(CN(C)C4CCOCC4)cc2)CCN3C=O)cc1Cl [Compound 21, 7-[3-chloro4-(2-ethoxy)ethoxyphenyl]-1-formyl-N-[4-[[N-methyl-N-(tetrahydro-2H-pyran-4-yl)amino]methyl]phenyl]-2,3-dihydro-1H-1-benzazepine-4-carboxamide]
144 to 147	CCCN1CCC(C(=O)Nc2ccc(CN(C)C3CCOCC3)cc2)=Cc2cc(-c3ccc(OCCOCC)cc3)ccc21 [Compound 25, 7-[4-(2-ethoxyethoxy)phenyl]-N-[4-[[N-methyl-N-(tetrahydro-2H-pyran-4-yl)amino]methyl]phenyl]-1-propyl-2,3-dihydro-1H-1-benzazepine-4-carboxamide]
167 to 169	CCCOCCOc1ccc(-c2ccc3c(c2)C=C(C(=O)Nc2ccc(CN(C)C4CCOCC4)cc2)CCN3C(=O)CC)cc1 [Compound 29, 1-propionyl-7-[4-(2-propoxyethoxy)phenyl]-N-[4-[[N-methyl-N-(tetrahydro-2H-pyran-4-yl)amino]methyl]phenyl]-2,3-dihydro-1H-1-benzazepine-4-carboxamide]
